Measured values taken from patent publication US8952024B2, “Herbicidal pyrimidone derivatives” (E I du Pont de Nemours and Company, priority 2009, dated 2015).

Columns and labels:
Type in all cases: in vivo
[1] = system: barnyardgrass (Echinochloa crus-galli); test: Test A pre-/postemergence plant response
How it was run: (§1)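 Seeds planted in loam soil/sand blend; test chemicals in non-phytotoxic solvent mixture with surfactant applied as directed soil spray preemergence and, concurrently, postemergence to plants 2–10 cm tall at one- to two-leaf stage. Greenhouse ~10 days; visual injury vs untreated controls, 0 (no effect) to 100 (complete control).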

corn (Zea mays) = test: Test A pre-/postemergence plant response
How it was run: as §1

[2] = system: giant foxtail (Setaria faberii); test: Test A pre-/postemergence plant response
How it was run: as §1

[3] = system: large crabgrass (Digitaria sanguinalis); test: Test A pre-/postemergence plant response
How it was run: as §1

[4] = system: morningglory (Ipomoea spp.); test: Test A pre-/postemergence plant response
How it was run: as §1

[5] = system: pigweed (Amaranthus retroflexus); test: Test A pre-/postemergence plant response
How it was run: as §1

[6] = system: velvetleaf (Abutilon theophrasti); test: Test A pre-/postemergence plant response
How it was run: as §1

[7] = system: wheat (Triticum aestivum); test: Test A pre-/postemergence plant response
How it was run: as §1

[8] = system: winter barley (Hordeum vulgare); test: Test B postemergence plant response
How it was run: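 Plants grown in peat/vermiculite medium were sprayed postemergence at 2–18 cm height (1- to 4-leaf stage). After 13–15 days in the greenhouse, response was rated visually against untreated controls on a 0–100 scale (0 no effect, 100 complete control).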

[9] = system: barnyardgrass (Echinochloa crus-galli); test: Test B flooded paddy test; settings: for Plant response rating, Barnyardgrass: Flood (flooded paddy test), 13 to 15 days
How it was run: (§2)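 Rice, umbrella sedge, ducksalad and barnyardgrass were grown to the 2-leaf stage, flooded to 3 cm, and compound was applied directly to the paddy water, with that depth kept throughout. After 13 to 15 days in the greenhouse, plants were visually rated against controls on a 0 (no effect) to 100 (complete control) scale.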

[10] = system: ducksalad (Heteranthera limosa); test: Test B flooded paddy test; settings: for Plant response rating, Ducksalad: Flood (flooded paddy test), 13 to 15 days
How it was run: as §2

rice (Oryza sativa) = test: Test B flooded paddy test; settings: for Plant response rating, Rice: Flood (flooded paddy test), 13 to 15 days
How it was run: as §2

[11] = system: umbrella sedge (Cyperus difformis); test: Test B flooded paddy test; settings: for Plant response rating, Sedge, Umbrella: Flood (flooded paddy test), 13 to 15 days
How it was run: as §2

[12] = Postemergence, 125 g ai/ha, 0 to 100 scale where 0 is no effect and 100 is complete control
[13] = Postemergence, 500 g ai/ha, 0 to 100 scale, 0 = no effect, 100 = complete control, approx. ten days
[14] = Preemergence, 125 g ai/ha, 0 to 100 scale, 0 = no effect, 100 = complete control
[15] = Preemergence, 500 g ai/ha, visual injury, 0 to 100 scale (0 no effect, 100 complete control), approx. ten days
[16] = 250 g ai/ha, flooded paddy test, visual rating on 0 to 100 scale (0 no effect, 100 complete control) after 13 to 15 days
[17] = 62 g ai/ha, scale of 0 to 100 where 0 is no effect and 100 is complete control
[18] = 125 g ai/ha, scale 0 to 100, 0 is no effect, 100 is complete control
[19] = Flood, 31 g ai/ha, scale 0 to 100 (0 no effect, 100 complete control)

O=C1CCCC(O)=C1C(=O)c1cnc(-c2ccsc2)n(CC2CCCO2)c1=O (stereo not shown) [Compound 98]
65: Plant response rating, Sedge, Umbrella [11, 17]
0: Plant response rating, Barnyardgrass [1, 14] | Plant response rating, Corn (corn (Zea mays); [12]) | Plant response rating, Corn (corn (Zea mays); [14]) | Plant response rating, Corn (corn (Zea mays); [15]) | Plant response rating, Wheat [7, 12] | Plant response rating, Wheat [7, 14] | Plant response rating, Wheat [7, 15] | Plant response rating, Barley ([8]; 31 g ai/ha, postemergence, scale 0 to 100, 0 is no effect, 100 is complete control) | Barnyardgrass plant response rating [9, 19] | Plant response rating, Flood, Ducksalad [10, 16] | Plant response rating, Ducksalad [10, 17] | Plant response rating, Ducksalad [10, 18] | Ducksalad plant response rating [10, 19] | Plant response rating, Rice (rice (Oryza sativa); [17]) | Plant response rating, Rice (rice (Oryza sativa); [18]) | Rice plant response rating (rice (Oryza sativa); [19])
75: Plant response rating, Flood, Sedge, Umbrella [11, 16] | Plant response rating, Sedge, Umbrella [11, 18]
100: Plant response rating, Crabgrass, Large [3, 13] | Plant response rating, Crabgrass, Large [3, 15] | Plant response rating, Morningglory [4, 12] | Plant response rating, Morningglory [4, 13] | Plant response rating, Pigweed [5, 12] | Plant response rating, Pigweed [5, 13] | Plant response rating, Pigweed [5, 14] | Plant response rating, Pigweed [5, 15] | Plant response rating, Velvetleaf [6, 12] | Plant response rating, Velvetleaf [6, 13] | Plant response rating, Velvetleaf [6, 15]
90: Plant response rating, Barnyardgrass [1, 13] | Plant response rating, Foxtail, Giant [2, 13] | Plant response rating, Crabgrass, Large [3, 12] | Plant response rating, Crabgrass, Large [3, 14] | Plant response rating, Velvetleaf [6, 14]
20: Plant response rating, Wheat [7, 13]
70: Plant response rating, Foxtail, Giant [2, 12] | Plant response rating, Morningglory [4, 14]
30: Plant response rating, Barnyardgrass [9, 17] | Plant response rating, Barnyardgrass [9, 18]
10: Plant response rating, Barley ([8]; Postemergence, 125 g ai/ha, scale 0 to 100 (0 no effect, 100 complete control))
5: Barley plant response rating (0 to 100 scale) ([8]; 62 g ai/ha, postemergence, 0 is no effect, 100 is complete control, 13 to 15 days)
60: Plant response rating, Barnyardgrass [1, 15] | Plant response rating, Corn (corn (Zea mays); [13])
40: Plant response rating, Foxtail, Giant [2, 14] | Plant response rating, Flood, Rice (rice (Oryza sativa); [16]) | Sedge, Umbrella plant response rating [11, 19]
15: Plant response rating, Barley ([8]; Postemergence, 250 g ai/ha, scale 0 to 100 (0 no effect, 100 complete control))
80: Plant response rating, Barnyardgrass [1, 12] | Plant response rating, Foxtail, Giant [2, 15] | Plant response rating, Morningglory [4, 15]
50: Plant response rating, Flood, Barnyardgrass [9, 16]
